Data published in patent US7812008B2, “9-substituted tetracyclines” (Wyeth LLC, priority 2005, dated 2010).
In brackets after ≈: the same amount, converted by molar mass. Read-outs that look alike come from different tables or passages of the source.

Legend:
[1] = tested on: S. aureus GC1079 (tet(K)); experiment: MIC broth microdilution, S. aureus GC1079 (tet(K)); assay type: cell-based; settings: MHBII, 18-22 hours at 35° C.
Description: (§1) Methods for in Vitro Antibacterial Evaluation
(§2) The minimum inhibitory concentration (MIC)
(§3) Antimicrobial susceptibility testing. The in vitro activities of representative examples of antibiotics of the invention are determined by the broth microdilution method as recommended by the National Committee for Clinical Laboratory Standards (NCCLS) (1). Mueller-Hinton II broth (MHBII)(BBL Cockeysville, Md.) is the medium employed in the testing procedures. Microtiter plates containing serial dilutions of each antimicrobial agent are inoculated with each organism to yield the appropriate density (10^5 CFU/ml) in a 100 μl final volume. The plates are incubated for 18-22 hours at 35° C. in ambient air. […] NCCLS. 2000. Methods for Dilution Antimicrobial Susceptibility Tests for Bacteria That Grow Aerobically; Approved Standards: M7-A5, vol. 20. National Committe for Clinical Laboratory Standards, Wayne, Pa.

[2] = tested on: M. catarrhalis* GC6907 (Clinical); experiment: MIC broth microdilution, M. catarrhalis GC6907 (Clinical); assay type: cell-based; settings: 18-22 hours at 35° C.
Description: as §1, §2, §3

[3] = tested on: S. aureus GC1131 (Clinical); experiment: MIC broth microdilution, S. aureus GC1131 (Clinical); assay type: cell-based; settings: MHBII, 18-22 hours at 35° C.
Description: as §1, §2, §3

[4] = tested on: E. faecalis GC4555 (ATCC Control); experiment: MIC broth microdilution, E. faecalis GC4555 (ATCC Control); assay type: cell-based; settings: MHBII, 18-22 hours at 35° C.
Description: as §1, §2, §3

[5] = tested on: S. aureus GC2216 (ATCC Control); experiment: MIC broth microdilution, S. aureus GC2216 (ATCC Control); assay type: cell-based; settings: MHBII, 18-22 hours at 35° C.
Description: as §1, §2, §3

[6] = tested on: S. pyogenes* GC4563 (Clinical); experiment: MIC broth microdilution, S. pyogenes GC4563 (Clinical); assay type: cell-based; settings: 18-22 hours at 35° C.
Description: as §1, §2, §3

[7] = tested on: Staphylococcal aureus Smith M P; experiment: In vivo antibacterial evaluation, acute lethal infection in mice; settings: single intraveneous dose, female CD-1 mice, 7 day survival ratios, 3 tests pooled; for ED50: Mus musculus, iv, 168 h, read-out: SIV* ED50
[8] = tested on: S. aureus GC4536 (Smith MP -In Vivo); experiment: MIC broth microdilution, S. aureus GC4536 (Smith MP -In Vivo); assay type: cell-based; settings: MHBII, 18-22 hours at 35° C.
Description: as §1, §2, §3

E. coli GC1073 (tet(B)) = experiment: MIC broth microdilution, E. coli GC1073 (tet(B)); assay type: cell-based; settings: MHBII, 18-22 hours at 35° C.
Description: as §1, §2, §3

[9] = tested on: E. coli GC4559 (parent GC4560); experiment: MIC broth microdilution, E. coli GC4559 (parent GC4560); assay type: cell-based; settings: MHBII, 18-22 hours at 35° C.
Description: as §1, §2, §3

[10] = tested on: S. pneumoniae* GC4465 (Clinical); experiment: MIC broth microdilution, S. pneumoniae GC4465 (Clinical); assay type: cell-based; settings: 18-22 hours at 35° C.
Description: as §1, §2, §3

[11] = tested on: E. faecalis GC2242 (Van-resistant); experiment: MIC broth microdilution, E. faecalis GC2242 (Van-resistant); assay type: cell-based; settings: MHBII, 18-22 hours at 35° C.
Description: as §1, §2, §3

[12] = tested on: S. aureus GC6466 (tet(M)); experiment: MIC broth microdilution, S. aureus GC6466 (tet(M)); assay type: cell-based; settings: MHBII, 18-22 hours at 35° C.
Description: as §1, §2, §3

[13] = tested on: S. pneumoniae* GC1894 (Clinical); experiment: MIC broth microdilution, S. pneumoniae GC1894 (Clinical); assay type: cell-based; settings: 18-22 hours at 35° C.
Description: as §1, §2, §3

E. coli GC2270 (tet(M)) = experiment: MIC broth microdilution, E. coli GC2270 (tet(M)); assay type: cell-based; settings: MHBII, 18-22 hours at 35° C.
Description: as §1, §2, §3

[14] = tested on: Staphylococcal aureus Smith M P; experiment: MIC reported in Table 2 beside the in vivo ED50; assay type: cell-based; settings: Staphylococcus aureus, infecting strain S. aureus Smith MP
Description: Antimicrobial susceptibility testing. The in vitro activities of representative examples of antibiotics of the invention are determined by the broth microdilution method as recommended by the National Committee for Clinical Laboratory Standards (NCCLS) (1). Mueller-Hinton II broth (MHBII)(BBL Cockeysville, Md.) is the medium employed in the testing procedures. Microtiter plates containing serial dilutions of each antimicrobial agent are inoculated with each organism to yield the appropriate density (10^5 CFU/ml) in a 100 μl final volume. The plates are incubated for 18-22 hours at 35° C. in ambient air. […] NCCLS. 2000. Methods for Dilution Antimicrobial Susceptibility Tests for Bacteria That Grow Aerobically; Approved Standards: M7-A5, vol. 20. National Committe for Clinical Laboratory Standards, Wayne, Pa. In Vivo Antibacterial Evaluation: The therapeutic effects of representative examples of the invention are determined against acute lethal infection with Staphylococcal aureus Smith M P, Female mice, strain CD-1 (Charles River Laboratoties), ca. 20 grams, are challenged by an intraperitoneal injection of sufficient bacteria (suspended in broth or hog mucin) to kill non-treated controls within 24-28 hours. Antibacterial agents, contained in 0.5 ml of 0.2% aqueous agar, are administered subcutaneously or orally 30 minutes after injection. When an oral dosing schedule is used, animal are deprived of food for 5 hours before and 2 hours after injection. Five mice are treated at each dose level. The 7 day survival ratios from 3 separate tests are pooled for calculation of median effective dose (ED50).

[15] = tested on: E. faecalis GC2267 (tet(L) + (M) + (S)); experiment: MIC broth microdilution, E. faecalis GC2267 (tet(L) + (M) + (S)); assay type: cell-based; settings: MHBII, 18-22 hours at 35° C.
Description: as §1, §2, §3

[16] = tested on: C. albicans GC3066 ATCC (Control); experiment: MIC broth microdilution, C. albicans GC3066 ATCC (Control); assay type: cell-based; settings: 18-22 hours at 35° C.
Description: as §1, §2, §3

[17] = tested on: Staphylococcal aureus Smith M P; experiment: In vivo antibacterial evaluation, acute lethal infection in mice; settings: single oral dose 30 minutes after intraperitoneal challenge, female CD-1 mice, 7 day survival ratios, 3 tests pooled; for ED50: Mus musculus, read-out: SOD* ED50
Description: In Vivo Antibacterial Evaluation: The therapeutic effects of representative examples of the invention are determined against acute lethal infection with Staphylococcal aureus Smith M P, Female mice, strain CD-1 (Charles River Laboratoties), ca. 20 grams, are challenged by an intraperitoneal injection of sufficient bacteria (suspended in broth or hog mucin) to kill non-treated controls within 24-28 hours. Antibacterial agents, contained in 0.5 ml of 0.2% aqueous agar, are administered subcutaneously or orally 30 minutes after injection. When an oral dosing schedule is used, animal are deprived of food for 5 hours before and 2 hours after injection. Five mice are treated at each dose level. The 7 day survival ratios from 3 separate tests are pooled for calculation of median effective dose (ED50).

[18] = tested on: E. coli GC2203 (ATCC Control); experiment: MIC broth microdilution, E. coli GC2203 (ATCC Control); assay type: cell-based; settings: MHBII, 18-22 hours at 35° C.
Description: as §1, §2, §3

[19] = tested on: S. aureus GC6467 (tet(M) + (K)); experiment: MIC broth microdilution, S. aureus GC6467 (tet(M) + (K)); assay type: cell-based; settings: MHBII, 18-22 hours at 35° C.
Description: as §1, §2, §3

[20] = tested on: H. influenzae<> GC6896 (ATCC Control); experiment: MIC broth microdilution, H. influenzae GC6896 (ATCC Control); assay type: cell-based; settings: 18-22 hours at 35° C.
Description: as §1, §2, §3

[21] = tested on: E. coli GC4560 (IMP mutant); experiment: MIC broth microdilution, E. coli GC4560 (IMP mutant); assay type: cell-based; settings: MHBII, 18-22 hours at 35° C.
Description: as §1, §2, §3

SMILES	minimum inhibitory concentration (MIC) [1]	minimum inhibitory concentration (MIC) [2]	minimum inhibitory concentration (MIC) [3]	minimum inhibitory concentration (MIC) [4]	minimum inhibitory concentration (MIC) [5]	minimum inhibitory concentration (MIC) [6]	minimum inhibitory concentration (MIC) [8]	minimum inhibitory concentration (MIC) (E. coli GC1073 (tet(B)))	minimum inhibitory concentration (MIC) [9]	minimum inhibitory concentration (MIC) [10]	minimum inhibitory concentration (MIC) [11]	minimum inhibitory concentration (MIC) [12]	minimum inhibitory concentration (MIC) [13]	minimum inhibitory concentration (MIC) (E. coli GC2270 (tet(M)))	minimum inhibitory concentration (MIC) [15]	minimum inhibitory concentration (MIC) [16]	minimum inhibitory concentration (MIC) [18]	minimum inhibitory concentration (MIC) [19]	minimum inhibitory concentration (MIC) [20]	minimum inhibitory concentration (MIC) [21]	further results
CN(C)c1cc(NC(=O)CN(O)C2CCCCC2)c(O)c2c1C[C@H]1C[C@H]3[C@H](N(C)C)C(O)=C(C(N)=O)C(=O)[C@@]3(O)C(O)=C1C2=O [Example 1, (4S,4aS,5aR,12aS)-9-[(N-cyclohexyl-N-hydroxyglycyl)amino]-4,7-bis(dimethylamino)-3,10,12,12a-tetrahydroxy-1,11-dioxo-1,4,4a,5,5a,6,11,12a-octahydrotetracene-2-carboxamide]	16	0.50	4	1	4	0.12	4	16	8	0.25	2	8	0.25	8	16	>64	2	>64	2	0.25	ED50 [7]: 1.56 mg/kg; MIC [14]: 1 µg/mL (≈ 1.59 µM); ED50 [17]: 7.75 mg/kg
CN(C)[C@@H]1C(O)=C(C(N)=O)C(=O)[C@@]2(O)C(O)=C3C(=O)c4c(O)c(NC(=O)CN5CCCCO5)cc(I)c4C[C@H]3C[C@@H]12 [Example 9, (4S,4aS,5aR,12aS)-4-(dimethylamino)-3,10,12,12a-tetrahydroxy-7-iodo-9[(1,2-oxazinan-2-ylacetyl)amino]-1,11-dioxo-1,4,4a,5,5a,6,11,12a-octahydrotetracene-2-carboxamide]	2	2	2	4	1	1	4	>64	>64	1	8	1	0.50	>64	2	>64	>64	4	>64	2	
CN(C)[C@@H]1C(O)=C(C(N)=O)C(=O)[C@@]2(O)C(O)=C3C(=O)c4c(O)c(NC(=O)CN5CCCCO5)cc(-c5cccs5)c4C[C@H]3C[C@@H]12 [Example 10, (4S,4aS,5aR,12aS)-4-(dimethylamino)-3,10,12,12a-tetrahydroxy-9-[(1,2-oxazinan-2-ylacetyl)amino]-1,11-dioxo-7-thien-2-yl-1,4,4a,5,5a,6,11,12a-octahydrotetracene-2-carboxamide]	4	2	4	8	4	2	4	>64	>64	2	4	2	2	>64	4	>64	>64	8	>64	4	
CN(C)c1cc(NC(=O)CNC(C)(C)C)c(O)c2c1C[C@H]1C[C@H]3[C@H](N(C)C)C(O)=C(C(N)=O)C(=O)[C@@]3(O)C(O)=C1C2=O [GAR-936, reference compound]																					SIV* ED50 [7]: 0.46 mg/kg; SOD* ED50 [17]: 36 mg/kg
CN(C)c1ccc(O)c2c1C[C@H]1C[C@H]3[C@H](N(C)C)C(O)=C(C(N)=O)C(=O)[C@@]3(O)C(O)=C1C2=O [Minocycline, 7-(dimethylamino)-6-demethyl-6-deoxytetracycline, reference compound]		<0.06		4		<0.06		16	2			8	4	64	16	>64					ED50 [7]: 0.37 to 0.42 mg/kg; MIC [14]: 0.25 µg/mL (≈ 0.546 µM); ED50 [17]: 0.6 to 0.93 mg/kg
